# Measured values as given in patent publication US20220125765A1, “PHARMACEUTICAL COMBINATIONS COMPRISING MEBENDAZOLE AND A STRONG OR MODERATE CYP1A2 INHIBITOR” (ZEPHAPHARM LTD, priority 2019, published 2022).
# Where two headings read alike, the source gives them in different places.
# Key:
# [1] = target: CYP2D6 (Homo sapiens, UniProt P10635); assay: Cytochrome P450 reaction phenotyping, recombinant CYP2D6 (Bactosomes)
# Experimental: Incubations were also performed using control Bactosomes™ (no P450 enzymes present) to reveal any non-enzymatic degradation. Control compounds known to be metabolised specifically by each P450 isoform were included. All incubations were performed singularly for each test compound.
# Incubations were also performed using control Bactosomes™ (no P450 enzymes present) to reveal any non-enzymatic degradation. Control compounds known to be metabolised specifically by each P450 isoform were included. All incubations were performed singularly for each test compound. […] The reactions were stopped by transferring an aliquot of incubate to quench solvent at the appropriate time points, in a 1:3 ratio. The termination plates were centrifuged at 3,000 rpm for 20 min at 4° C. to precipitate the protein.
# [2] = tested on: NBXF SK-N-AS; assay: 2D monolayer CellTiter-Blue viability, neuroblastoma SK-N-AS; format: cell-based; conditions: 72 h
# Experimental: (§1) Seventeen compounds, including mebendazole (Batch no. […] Efficacy of compounds was assessed using CellTiter-Blue® Cell Viability Assay. Anti-tumor activity is expressed as absolute and relative IC50 and IC70 values, calculated by non-linear regression analysis.
# [3] = tested on: SXFS RH-41; assay: 2D monolayer CellTiter-Blue viability, soft tissue sarcoma RH-41; format: cell-based; conditions: 72 h
# Experimental: as §1
# [4] = tested on: 6 ovarian cancer (OVXF) and 6 renal cancer (RXF) cell lines; assay: 2D monolayer CellTiter-Blue viability, panel geometric mean (Example 10); format: cell-based; conditions: 12 cell lines, 72 h
# Experimental: (§2) Mebendazole was tested in vitro across a panel of 12 tumor cell lines of ovarian and renal cancer by using a 2D monolayer assay. […] OVXF 899L and RXF 486L are P-gp expressing, multidrug resistant cell lines.
# (§3) Anti-tumor activity is expressed as absolute and relative IC50/70 values, calculated by 4-parameter non-linear curve fit.
# [5] = tested on: SXFO 678; assay: 2D monolayer CellTiter-Blue viability, osteosarcoma SXFO 678; format: cell-based; conditions: 72 h
# Experimental: as §1
# [6] = target: T1, BCRP (Homo sapiens, UniProt Q9UNQ0); assay: in vitro
# T1 sequence (Q9UNQ0 1-655): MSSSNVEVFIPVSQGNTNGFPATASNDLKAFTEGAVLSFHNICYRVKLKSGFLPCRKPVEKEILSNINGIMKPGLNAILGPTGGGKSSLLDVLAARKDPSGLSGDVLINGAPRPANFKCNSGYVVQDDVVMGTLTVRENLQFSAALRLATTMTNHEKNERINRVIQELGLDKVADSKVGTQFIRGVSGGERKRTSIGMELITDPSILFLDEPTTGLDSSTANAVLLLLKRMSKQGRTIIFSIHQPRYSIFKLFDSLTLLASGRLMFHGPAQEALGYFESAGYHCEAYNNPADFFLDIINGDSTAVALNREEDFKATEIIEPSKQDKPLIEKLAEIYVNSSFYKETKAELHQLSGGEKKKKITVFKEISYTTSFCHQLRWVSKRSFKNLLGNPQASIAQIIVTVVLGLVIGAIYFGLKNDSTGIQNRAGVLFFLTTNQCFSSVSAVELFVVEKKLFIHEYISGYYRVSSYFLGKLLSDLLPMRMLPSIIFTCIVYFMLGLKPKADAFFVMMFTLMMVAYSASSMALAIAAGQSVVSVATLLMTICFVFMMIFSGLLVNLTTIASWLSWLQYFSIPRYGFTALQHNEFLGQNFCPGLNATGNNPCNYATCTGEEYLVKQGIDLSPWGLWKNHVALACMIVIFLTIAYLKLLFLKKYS
# Excerpt: Bidirectional apparent permeability of test compound was quantified by LC-MS/MS and used to determine an efflux ratio.
# [7] = tested on: SXFS Hs 729; assay: 2D monolayer CellTiter-Blue viability, soft tissue sarcoma Hs 729; format: cell-based; conditions: 72 h
# Experimental: as §1
# [8] = tested on: A2780; assay: 2D monolayer CellTiter-Blue viability, ovarian cancer A2780; format: cell-based; conditions: for Test/Control (%) at Drug Concentration: 72 h; for IC50: Homo sapiens
# Experimental: as §2, §3
# CYP2D6, sequence (P10635 whole entry, canonical isoform): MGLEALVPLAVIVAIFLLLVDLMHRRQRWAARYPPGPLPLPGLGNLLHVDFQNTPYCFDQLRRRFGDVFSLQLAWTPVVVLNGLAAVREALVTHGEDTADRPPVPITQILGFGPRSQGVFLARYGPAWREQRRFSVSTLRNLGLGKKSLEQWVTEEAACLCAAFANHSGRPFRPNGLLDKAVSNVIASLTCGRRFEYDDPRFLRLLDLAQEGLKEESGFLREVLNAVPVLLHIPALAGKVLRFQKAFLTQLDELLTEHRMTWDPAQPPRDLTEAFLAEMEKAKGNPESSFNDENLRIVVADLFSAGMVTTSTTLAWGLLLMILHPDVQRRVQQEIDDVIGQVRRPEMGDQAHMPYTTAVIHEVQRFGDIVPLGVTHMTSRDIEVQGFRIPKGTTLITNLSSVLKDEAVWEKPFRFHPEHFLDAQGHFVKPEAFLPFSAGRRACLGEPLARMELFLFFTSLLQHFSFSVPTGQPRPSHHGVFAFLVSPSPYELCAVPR
smiles,measurement,setting,value
"COC(=O)Nc1nc2ccc(C(=O)c3ccccc3)cc2[nH]1 [Mebendazole, methyl N-(6-benzoyl-1H-benzimidazol-2-yl)carbamate]",Compound Remaining (% of 0 min),"[1]; CYP2D6, 5 μM, 0 min",100 % of 0 min
same,Compound Remaining (% of 0 min),"[1]; CYP2D6, 5 μM, 5 min",93.6 % of 0 min
same,Compound Remaining (% of 0 min),"[1]; CYP2D6, 5 μM, 15 min",93.3 % of 0 min
same,Compound Remaining (% of 0 min),"[1]; CYP2D6, 5 μM, 30 min",94.6 % of 0 min
same,Compound Remaining (% of 0 min),"[1]; CYP2D6, 5 μM, 45 min",90.4 % of 0 min
same,% compound remaining,"[1]; CYP2D6, 5 μM, time not stated",> 87.5%
same,t1/2,"[1]; CYP2D6, substrate 5 μM",>2.25 h
same,half-life at 5 μM,"[1]; human, recombinant CYP2D6 (Bactosomes), pH 7.4",> 2.25 h
same,Test/Control (%) at Drug Concentration,[2]; 1.0E+00 μM,31%
same,Test/Control (%) at Drug Concentration,[2]; 1.0E+01 μM,21%
same,Test/Control (%) at Drug Concentration,[2]; 1.0E+02 μM,8%
same,Test/Control (%) at Drug Concentration,[2]; 1.0E−01 μM,62%
same,Test/Control (%) at Drug Concentration,[2]; 1.0E−02 μM,91%
same,Test/Control (%) at Drug Concentration,[2]; 3.2E+00 μM,28%
same,Test/Control (%) at Drug Concentration,[2]; 3.2E+01 μM,19%
same,Test/Control (%) at Drug Concentration,[2]; 3.2E−01 μM,36%
same,Test/Control (%) at Drug Concentration,[2]; 3.2E−02 μM,84%
same,Test/Control (%) at Drug Concentration,[2]; 3.2E−03 μM,89%
same,Test/Control (%) at Drug Concentration,"[3]; RH-41, 1.0E+00 μM",5%
same,Test/Control (%) at Drug Concentration,"[3]; RH-41, 1.0E+01 μM",6%
same,Test/Control (%) at Drug Concentration,"[3]; RH-41, 1.0E+02 μM",1%
same,Test/Control (%) at Drug Concentration,"[3]; RH-41, 1.0E−01 μM",81%
same,Test/Control (%) at Drug Concentration,"[3]; RH-41, 1.0E−02 μM",105%
same,Test/Control (%) at Drug Concentration,"[3]; RH-41, 3.2E+00 μM",5%
same,Test/Control (%) at Drug Concentration,"[3]; RH-41, 3.2E+01 μM",4%
same,Test/Control (%) at Drug Concentration,"[3]; RH-41, 3.2E−01 μM",17%
same,Test/Control (%) at Drug Concentration,"[3]; RH-41, 3.2E−02 μM",93%
same,Test/Control (%) at Drug Concentration,"[3]; RH-41, 3.2E−03 μM",95%
same,Geometric mean Abs. IC70,[4],1.515 µM
same,Geometric mean Rel. IC70,[4],0.801 µM
same,IC50,[4]; read-out: Geometric mean Abs. IC50,0.941 µM
same,IC50,[4]; read-out: Geometric mean Rel. IC50,0.587 µM
same,Test/Control (%) at Drug Concentration,"[5]; SXFO 678, 1.0E+00 μM",11%
same,Test/Control (%) at Drug Concentration,"[5]; SXFO 678, 1.0E+01 μM",28%
same,Test/Control (%) at Drug Concentration,"[5]; SXFO 678, 1.0E+02 μM",11%
same,Test/Control (%) at Drug Concentration,"[5]; SXFO 678, 1.0E−01 μM",64%
same,Test/Control (%) at Drug Concentration,"[5]; SXFO 678, 1.0E−02 μM",87%
same,Test/Control (%) at Drug Concentration,"[5]; SXFO 678, 3.2E+00 μM",22%
same,Test/Control (%) at Drug Concentration,"[5]; SXFO 678, 3.2E+01 μM",21%
same,Test/Control (%) at Drug Concentration,"[5]; SXFO 678, 3.2E−01 μM",14%
same,Test/Control (%) at Drug Concentration,"[5]; SXFO 678, 3.2E−02 μM",88%
same,Test/Control (%) at Drug Concentration,"[5]; SXFO 678, 3.2E−03 μM",90%
same,"efflux ratio at 120 min, 10 μM",[6]; Caco-2,1.23
same,"Papp A→B at 120 min, 10 μM","[6]; Caco-2, Papp Mean",23.5 ×10⁻⁶ cm/s
same,"Papp B→A at 120 min, 10 μM","[6]; Caco-2, Papp Mean",29 ×10⁻⁶ cm/s
same,"Papp A→B at 120 min, 10 μM","[6]; Caco-2, Papp Rep 1",19.7 ×10⁻⁶ cm/s
same,"Papp B→A at 120 min, 10 μM","[6]; Caco-2, Papp Rep 1",28.2 ×10⁻⁶ cm/s
same,"Papp A→B at 120 min, 10 μM","[6]; Caco-2, Papp Rep 2",27.4 ×10⁻⁶ cm/s
same,"Papp B→A at 120 min, 10 μM","[6]; Caco-2, Papp Rep 2",29.8 ×10⁻⁶ cm/s
same,"recovery at 120 min, 10 µM","[6]; Caco-2, calculated mean % recovery values (range)",52 to 75.7%
same,Test/Control (%) at Drug Concentration,"[7]; Hs 729, 1.0E+00 μM",65%
same,Test/Control (%) at Drug Concentration,"[7]; Hs 729, 1.0E+01 μM",44%
same,Test/Control (%) at Drug Concentration,"[7]; Hs 729, 1.0E+02 μM",12%
same,Test/Control (%) at Drug Concentration,"[7]; Hs 729, 1.0E−01 μM",90%
same,Test/Control (%) at Drug Concentration,"[7]; Hs 729, 1.0E−02 μM",91%
same,Test/Control (%) at Drug Concentration,"[7]; Hs 729, 3.2E+00 μM",56%
same,Test/Control (%) at Drug Concentration,"[7]; Hs 729, 3.2E+01 μM",35%
same,Test/Control (%) at Drug Concentration,"[7]; Hs 729, 3.2E−01 μM",84%
same,Test/Control (%) at Drug Concentration,"[7]; Hs 729, 3.2E−02 μM",89%
same,Test/Control (%) at Drug Concentration,"[7]; Hs 729, 3.2E−03 μM",93%
same,Test/Control (%) at Drug Concentration,"[8]; A2780, 1.0E+00 μM",26%
same,Test/Control (%) at Drug Concentration,"[8]; A2780, 1.0E−01 μM",91%
same,Test/Control (%) at Drug Concentration,"[8]; A2780, 1.0E−02 μM",96%
same,Test/Control (%) at Drug Concentration,"[8]; A2780, 1.0E−03 μM",95%
same,Test/Control (%) at Drug Concentration,"[8]; A2780, 1.0E−04 μM",115%
same,Test/Control (%) at Drug Concentration,"[8]; A2780, 3.2E+00 μM",13%
same,Test/Control (%) at Drug Concentration,"[8]; A2780, 3.2E−01 μM",30%
same,Test/Control (%) at Drug Concentration,"[8]; A2780, 3.2E−02 μM",97%
same,Test/Control (%) at Drug Concentration,"[8]; A2780, 3.2E−03 μM",99%
same,Test/Control (%) at Drug Concentration,"[8]; A2780, 3.2E−04 μM",109%
same,Abs. IC70,"[8]; A2780, 72 h",0.323 µM
same,Rel. IC70,"[8]; A2780, 72 h",0.231 µM
same,Bot. (%),"[8]; A2780, 72 h, curve fit",19%
same,Top (%),"[8]; A2780, 72 h, curve fit",102%
same,IC50,"[8]; A2780, 72 h, read-out: Abs. IC50",0.209 µM
same,IC50,"[8]; A2780, 72 h, read-out: Rel. IC50",0.178 µM
